Results taken from ChEMBL document CHEMBL4257450, “The synthesis, biological evaluation and structure-activity relationship of 2-phenylaminomethylene-cyclohexane-1,3-diones as specific anti-tuberculosis agents” (Medchemcomm, 2017).
≈ marks a conversion by molar mass, not a printed value.

How the values were obtained:
[1] = Growth inhibition of human PC3 cells at 1 to 40 uM by MTT assay relative to control; type: cell-based, PC-3; settings: read-out: GI
[2] = Growth inhibition of HEK293 cells at 50 uM by MTT assay relative to control; type: cell-based; settings: human, read-out: GI
[3] = Growth inhibition of human PC3 cells at 50 uM by MTT assay relative to control; type: cell-based, PC-3; settings: read-out: GI
[4] = system: Mycobacterium tuberculosis; experiment: Antimycobacterial activity against Mycobacterium tuberculosis H37Rv after 14 days by broth dilution method; type: functional; settings: 336 h
[5] = Growth inhibition of human MCF7 cells at 1 to 40 uM by MTT assay relative to control; type: cell-based; settings: read-out: GI
[6] = Growth inhibition of human HCT116 cells at 50 uM by MTT assay relative to control; type: cell-based, HCT-116; settings: read-out: GI
[7] = Growth inhibition of human HCT116 cells at 1 to 40 uM by MTT assay relative to control; type: cell-based, HCT-116; settings: read-out: GI
[8] = Growth inhibition of HEK293 cells at 1 to 40 uM by MTT assay relative to control; type: cell-based; settings: human, read-out: GI
[9] = Growth inhibition of human MCF7 cells at 50 uM by MTT assay relative to control; type: cell-based; settings: read-out: GI
Pseudomonas aeruginosa = experiment: Antibacterial activity against Pseudomonas aeruginosa ATCC 10145 after 24 hrs; type: functional; settings: ATCC 10145, 24 h
Enterococcus faecalis = experiment: Antibacterial activity against Enterococcus faecalis ATCC 51299 after 24 hrs; type: functional; settings: ATCC 51299, 24 h
Micrococcus luteus = experiment: Antibacterial activity against Micrococcus luteus ATCC 10240 after 24 hrs; type: functional; settings: ATCC 10240, 24 h
[10] = system: Staphylococcus epidermidis; experiment: Antibacterial activity against Staphylococcus epidermidis ATCC 12228 after 24 hrs; type: functional; settings: ATCC 12228, 24 h
[11] = system: Mycolicibacterium smegmatis; experiment: Antimycobacterial activity against Mycobacterium smegmatis ATCC 607 after 24 hrs; type: functional; settings: ATCC 607, 24 h
Staphylococcus aureus = experiment: Antibacterial activity against Staphylococcus aureus ATCC 25923 after 24 hrs; type: functional; settings: ATCC 25923, 24 h
Escherichia coli = experiment: Antibacterial activity against Escherichia coli 10536 after 24 hrs; type: functional; settings: Escherichia coli, 10536, 24 h
Bacillus subtilis = experiment: Antibacterial activity against Bacillus subtilis ATCC 11774 after 24 hrs; type: functional; settings: ATCC 11774, 24 h
Klebsiella pneumoniae = experiment: Antibacterial activity against Klebsiella pneumoniae ATCC BAA-2146 after 24 hrs; type: functional; settings: ATCC BAA-2146, 24 h
HEK293 = experiment: Growth inhibition of HEK293 cells up to 80 uM by MTT assay relative to control; type: cell-based; settings: human
[12] = Selectivity ratio of MIC for Mycobacterium smegmatis to MIC for Mycobacterium tuberculosis; type: functional
[13] = system: Mycolicibacterium smegmatis; experiment: Antimycobacterial activity against Mycobacterium smegmatis; type: functional
[14] = system: Mycobacterium tuberculosis; experiment: Antimycobacterial activity against Mycobacterium tuberculosis; type: functional

## CC1(C)CCC(=O)C(=CNc2ccccc2O)C1=O (mixture of isomers)
[1]
  inhibition at up to 40 µM: < 20%
[2]
  inhibition at 50 µM: 64.1%
[3]
  inhibition at 50 µM: 41.2%
[4]
  MIC: 10 to 20 µg/mL
[5]
  inhibition at up to 40 µM: < 20%
[6]
  inhibition at 50 µM: 60.7%
[7]
  inhibition at up to 40 µM: < 20%
[8]
  inhibition at up to 40 µM: < 20%

## CC1(C)CC(=O)C(=CNc2cccc(Br)c2)C(=O)C1
[4]
  MIC: > 80 µg/mL

## CC1(C)CC(=O)C(=CNc2ccc(Cl)cc2)C(=O)C1
[4]
  MIC: > 80 µg/mL

## O=C1CCCC(=O)C1=CNc1ccc([N+](=O)[O-])cc1F
[4]
  MIC: 80 µg/mL (≈ 288 µM)

## O=C1CC(c2ccc(Cl)cc2)CC(=O)C1=CNc1ccccc1O (stereo not drawn)
[1]
  inhibition at up to 40 µM: < 20%
[2]
  inhibition at 50 µM: 44%
[9]
  inhibition at 50 µM: 23.4%
[3]
  inhibition at 50 µM: 18.6%
[4]
  MIC: 20 µg/mL (≈ 58.5 µM)
[5]
  inhibition at up to 40 µM: < 20%
[6]
  inhibition at 50 µM: 28.6%
[7]
  inhibition at up to 40 µM: < 20%
[8]
  inhibition at up to 40 µM: < 20%

## CNC=C1C(=O)CC(C)(C)CC1=O
[4]
  MIC: > 80 µg/mL

## CC[C@@H](CO)NCCN[C@@H](CC)CO [ETHAMBUTOL]
[4]
  MIC: 1.25 µg/mL (≈ 6.12 µM)

## CC1(C)CC(=O)C(=CNc2ccc(Br)cc2)C(=O)C1
[4]
  MIC: > 80 µg/mL

## Cc1ccc(NC=C2C(=O)CC(C)(C)CC2=O)c(C)c1
[4]
  MIC: > 80 µg/mL

## CN[C@@H]1[C@H](O[C@H]2[C@H](O[C@H]3[C@H](O)[C@@H](O)[C@H](N=C(N)N)[C@@H](O)[C@@H]3N=C(N)N)O[C@@H](C)[C@]2(O)C=O)O[C@@H](CO)[C@H](O)[C@H]1O [STREPTOMYCIN]
[4]
  MIC: 1.56 µg/mL (≈ 2.68 µM)

## CC1(C)CC(=O)C(=CNc2ccc([N+](=O)[O-])cc2)C(=O)C1
[4]
  MIC: > 80 µg/mL

## CC1(C)CC(=O)C(=CNc2cccc(C(F)(F)F)c2)C(=O)C1
[4]
  MIC: > 80 µg/mL

## CC1(C)CC(=O)C(=CNc2cccc3ccccc23)C(=O)C1
[4]
  MIC: > 80 µg/mL

## O=C1CCCC(=O)C1=CNc1ccccc1O
[1]
  inhibition at up to 40 µM: < 20%
[2]
  inhibition at 50 µM: 28.3%
[9]
  inhibition at 50 µM: 14.5%
[3]
  inhibition at 50 µM: 29.5%
[4]
  MIC: 5 to 10 µg/mL (≈ 21.6 to 43.2 µM)
[5]
  inhibition at up to 40 µM: < 20%
[6]
  inhibition at 50 µM: 10.6%
[7]
  inhibition at up to 40 µM: < 20%
[8]
  inhibition at up to 40 µM: < 20%

## CC1(C)CC(=O)C(=CNc2ccccc2C(F)(F)F)C(=O)C1
[4]
  MIC: > 80 µg/mL

## CC1(C)CC(=O)C(=CNc2ccc([N+](=O)[O-])cc2[N+](=O)[O-])C(=O)C1
[4]
  MIC: > 80 µg/mL

## CCCCCNC=C1C(=O)CC(C)(C)CC1=O
[4]
  MIC: > 80 µg/mL

## CC1(C)CC(=O)C(=CNc2ccc([N+](=O)[O-])cc2F)C(=O)C1
[4]
  MIC: 80 µg/mL (≈ 261 µM)

## O=C1CCCC(=O)C1=CSc1ccccc1O
[4]
  MIC: 40 to 80 µg/mL (≈ 161 to 322 µM)

## CC1(C)CC(=O)C(=CNc2ccc([N+](=O)[O-])cc2Cl)C(=O)C1
[4]
  MIC: > 80 µg/mL

## CC1CC(=O)C(=CNc2ccccc2O)C(=O)C1 (stereo not drawn)
[1]
  inhibition at up to 40 µM: < 20%
[2]
  inhibition at 50 µM: 6.08%
[9]
  inhibition at 50 µM: 16.6%
[3]
  inhibition at 50 µM: 8.2%
[4]
  MIC: 20 µg/mL (≈ 81.5 µM)
[5]
  inhibition at up to 40 µM: < 20%
[6]
  inhibition at 50 µM: 35.7%
[7]
  inhibition at up to 40 µM: < 20%
[8]
  inhibition at up to 40 µM: < 20%

## O=C1CCC(=O)C1=CNc1ccc([N+](=O)[O-])cc1Cl
[4]
  MIC: > 80 µg/mL

## CC1(C)CC(=O)C(=CSc2ccccc2O)C(=O)C1
[4]
  MIC: 40 to 80 µg/mL (≈ 145 to 289 µM)

## CCCNC=C1C(=O)CC(C)(C)CC1=O
[4]
  MIC: > 80 µg/mL

## CC1(C)CC(=O)C(=CNc2ccccc2O)C(=O)C1
Pseudomonas aeruginosa
  MIC: > 128 µg/mL
Enterococcus faecalis
  MIC: > 128 µg/mL
[1]
  inhibition at up to 40 µM: < 20%
Micrococcus luteus
  MIC: 128 µg/mL (≈ 494 µM)
[2]
  inhibition at 50 µM: 9.03%
[9]
  inhibition at 50 µM: 15.1%
[10]
  MIC: > 128 µg/mL
[3]
  inhibition at 50 µM: 10.1%
[4]
  MIC: 2.5 µg/mL (≈ 9.64 µM)
[11]
  MIC: > 80 µg/mL
[5]
  inhibition at up to 40 µM: < 20%
[6]
  inhibition at 50 µM: 20.2%
Staphylococcus aureus
  MIC: > 128 µg/mL
[7]
  inhibition at up to 40 µM: < 20%
Escherichia coli
  MIC: 32 to 64 µg/mL (≈ 123 to 247 µM)
Bacillus subtilis
  MIC: > 128 µg/mL
Klebsiella pneumoniae
  MIC: > 128 µg/mL
HEK293
  growth inhibition (GI): < 20%
[8]
  inhibition at up to 40 µM: < 20%

## CCCN(C=C1C(=O)CC(C)(C)CC1=O)CCC
[4]
  MIC: > 80 µg/mL

## O=C1CC(c2ccccc2)CC(=O)C1=CNc1ccccc1O (stereo not drawn)
[1]
  inhibition at up to 40 µM: < 20%
[2]
  inhibition at 50 µM: 52.8%
[9]
  inhibition at 50 µM: 16.5%
[3]
  inhibition at 50 µM: 20.4%
[4]
  MIC: 5 to 10 µg/mL (≈ 16.3 to 32.5 µM)
[5]
  inhibition at up to 40 µM: < 20%
[7]
  inhibition at up to 40 µM: < 20%
[8]
  inhibition at up to 40 µM: < 20%

## O=C1CCCC(=O)C1=CNc1ccc([N+](=O)[O-])cc1Cl
[4]
  MIC: 40 to 80 µg/mL (≈ 136 to 271 µM)

## Cc1ccc(NC=C2C(=O)CC(C)(C)CC2=O)c(C)c1C
[4]
  MIC: > 80 µg/mL

## C[C@H]1COc2c(N3CCN(C)CC3)c(F)cc3c(=O)c(C(=O)O)cn1c23.C[C@H]1COc2c(N3CCN(C)CC3)c(F)cc3c(=O)c(C(=O)O)cn1c23.O [LEVOFLOXACIN]
Pseudomonas aeruginosa
  MIC: 0.312 to 0.625 µg/mL
Enterococcus faecalis
  MIC: 0.156 µg/mL
Micrococcus luteus
  MIC: 0.078 µg/mL
[10]
  MIC: 0.039 to 0.078 µg/mL
[4]
  MIC: 2.5 µg/mL
[11]
  MIC: 0.156 µg/mL
Staphylococcus aureus
  MIC: 0.078 to 0.156 µg/mL
Escherichia coli
  MIC: 0.078 µg/mL
Bacillus subtilis
  MIC: 0.39 µg/mL
Klebsiella pneumoniae
  MIC: 0.625 to 1.25 µg/mL

## CC1(C)CC(=O)C(=CNc2cc(Cl)c(Cl)cc2Cl)C(=O)C1
[4]
  MIC: > 80 µg/mL

## NNC(=O)c1ccncc1 [ISONIAZID]
[12]
  Selectivity ratio: 500 to 1000
[4]
  MIC: 0.313 µg/mL (≈ 2.28 µM)
[13]
  MIC: 25 µg/mL (≈ 182 µM)
[14]
  MIC: 0.02 µg/mL (≈ 0.146 µM)

## CC1(C)CC(=O)C(=CNc2ccccc2[N+](=O)[O-])C(=O)C1
[4]
  MIC: > 80 µg/mL

## O=C1CC(c2ccco2)CC(=O)C1=CNc1ccccc1O (stereo not drawn)
[1]
  inhibition at up to 40 µM: < 20%
[2]
  inhibition at 50 µM: 46.4%
[9]
  inhibition at 50 µM: 2.92%
[3]
  inhibition at 50 µM: 26.1%
[4]
  MIC: 10 to 20 µg/mL (≈ 33.6 to 67.3 µM)
[5]
  inhibition at up to 40 µM: < 20%
[6]
  inhibition at 50 µM: 42.8%
[7]
  inhibition at up to 40 µM: < 20%
[8]
  inhibition at up to 40 µM: < 20%

## CO[C@H]1/C=C/O[C@@]2(C)Oc3c(C)c(O)c4c(O)c(c(/C=N/N5CCN(C)CC5)c(O)c4c3C2=O)NC(=O)/C(C)=C\C=C\[C@H](C)[C@H](O)[C@@H](C)[C@@H](O)[C@@H](C)[C@H](OC(C)=O)[C@@H]1C [RIFAMPIN]
[12]
  Selectivity ratio: 500 to 1000
[4]
  MIC: 0.078 µg/mL (≈ 0.0948 µM)
[13]
  MIC: 100 µg/mL (≈ 122 µM)
[14]
  MIC: 0.2 µg/mL (≈ 0.243 µM)

## CC1(C)CC(=O)C(=CNc2ccccc2Br)C(=O)C1
[4]
  MIC: > 80 µg/mL

## CCCCNC=C1C(=O)CC(C)(C)CC1=O
[4]
  MIC: > 80 µg/mL

## CC1(C)CC(=O)C(=CNc2ccccc2)C(=O)C1
[4]
  MIC: > 80 µg/mL

## CC1(C)CC(=O)C(=CNCc2ccc(F)cc2)C(=O)C1
[4]
  MIC: > 80 µg/mL

## O=C1CCC(=O)C1=CNc1ccc([N+](=O)[O-])cc1F
[4]
  MIC: > 80 µg/mL

## Cc1ccc(NC=C2C(=O)CC(C)(C)CC2=O)cc1C
[4]
  MIC: > 80 µg/mL

## O=C1CCC(=O)C1=CNc1ccccc1O
[4]
  MIC: > 80 µg/mL

## CC1(C)CC(=O)C(=CNc2ccc(F)cc2F)C(=O)C1
[4]
  MIC: > 80 µg/mL

## CC1(C)CC(=O)C(=CNc2cccc([N+](=O)[O-])c2)C(=O)C1
[4]
  MIC: > 80 µg/mL
